Test results as given in patent publication US20240327379A1, “MANDELATE FORM OF 1-(4-(((6-AMINO-5-(4-PHENOXYPHENYL)PYRIMIDIN-4-YL)AMINO)METHYL)PIPERIDIN-1-YL)PROP-2-EN-1-ONE” (Sandoz AG, priority 2021, published 2024).

Experiments:
[1] = Thermogravimetric analysis (TGA); type: physicochemical; details: heated from 25° C. at 10 K/min, nitrogen purge
Experimental: TGA was performed on a Mettler TGA/DSC 1 instrument. The sample (6.53 mg) was heated in a 100 microliter aluminium pan, closed with an aluminium lid, from 25 to 250° C. at a rate of 10 K/min. The lid was automatically pierced at the beginning of the measurement. Nitrogen (purge rate 30 mL/min) was used as purge gas.

[2] = Gravimetric moisture sorption (GMS); type: physicochemical; details: (25±0.1)° C.
Experimental: Gravimetric moisture sorption was performed with an SPSx-1μ moisture sorption analyzer (ProUmid, Ulm). The measurement cycle was started at ambient relative humidity (RH) of 30%. RH was then decreased to 5% in 5% steps, followed by a further decrease to 3% and to 0%. […] Finally, RH was increased to ambient relative humidity of 30% in 5% steps. The time per step was set to a minimum of 2 hours and a maximum of 6 hours. If an equilibrium condition with a constant mass of =0.01% within 1 hour was reached before the maximum time for all examined samples the sequential humidity step was applied before the maximum time of 6 hours. If no equilibrium was achieved the consecutive humidity step was applied after the maximum time of 6 hours. The temperature was (25±0.1)° C.

## C=CC(=O)N1CCC(CNc2ncnc(N)c2-c2ccc(Oc3ccccc3)cc2)CC1 [crystalline evobrutinib mandelate form]
[1]
  mass loss from the beginning of the measurement until about 170° C.: about 0.1%
[2]; GMS 0-90% RH
  hygroscopic behaviour: slightly hygroscopic
[2]; GMS cycle 0-90% RH, PXRD after the experiment
  physical stability during moisture sorption/desorption (hysteresis, PXRD after the experiment): no structural changes appear during the experiment
[2]; GMS sorption cycle, 0 to 80% RH
  mass difference in the sorption cycle between 0 and 80% RH: about 0.5 w-%
[2]; GMS, 0 to 90% RH
  maximum uptake between 0 and 90% RH: about 0.6%
